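Grown in 96-well plates, cells were treated for 48 hours with each compound at five concentrations. Insufficient inhibition: endpoint recorded as highest concentration tested. GI50: concentration for 50% inhibition of growth.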 Active and inactive are the calls of the source. Rule as the data show it: active = GI50 up to about 1.1 µM and inactive = higher. Some results are limits rather than exact numbers.

Test systems include A498; CAKI-1; CCRF-CEM; HCT-15; HT-29; IGROV-1; MOLT-4; Malme-3M; NCI-H226; NCI-H23; NCI-H460; OVCAR-3; SF-539; SK-MEL-5; SNB-19; U-251; OVCAR-4; OVCAR-5; UACC-257; RXF 393.
Common to all, as to assay: NCI-60 cell line screen, 48 h

Turning to `COc1ccc(/C(Cl)=C(\C=O)c2ccc(Cl)c(Cl)c2)cc1OC`, the GI50 in the assay on A498 is 15.2 µM (inactive); in the assay on CAKI-1 it was 5.08 µM (inactive); in the assay on CCRF-CEM it was 2.73 µM (inactive); with HCT-15, 4.34 µM; in the assay with HT-29 it was 2.47 µM (inactive); in the assay on IGROV-1, > 10 µM (inactive). For the same compound, the GI50 in the assay with MOLT-4 was 2.24 µM (inactive); with Malme-3M, 18.3 µM (inactive); in the assay on NCI-H226, 4.84 µM (inactive); with NCI-H23 it was 2.9 µM (inactive); in the assay with NCI-H460, 3.4 µM (inactive); in the assay on OVCAR-3, 13.1 µM (inactive). The GI50 is 5.89 µM (inactive) in the assay on SF-539, 12.8 µM (inactive) in the assay with SK-MEL-5, 14.9 µM (inactive) in the assay on SNB-19 and 4.34 µM (inactive) in the assay on U-251.
As to `Cc1cc(-c2ccccc2)nc(Nc2cc3ccccc3[nH]2)n1`, the GI50 in the assay with A498 is > 100 µM (inactive); in the assay with CAKI-1, > 100 µM (inactive); in the assay on CCRF-CEM it was > 100 µM (inactive); with HCT-15, > 100 µM; in the assay with HT-29, > 100 µM (inactive); in the assay with IGROV-1, > 100 µM (inactive). Besides, the GI50 in the assay on MOLT-4, with Malme-3M, with NCI-H226, in the assay on NCI-H23, in the assay on NCI-H460 and with OVCAR-3 was > 100 µM (inactive) throughout. Also, the GI50 with OVCAR-4, in the assay with OVCAR-5, in the assay with SF-539, in the assay on SK-MEL-5, in the assay on SNB-19 and in the assay with U-251 was > 100 µM (inactive) each time. Also, the GI50 in the assay on UACC-257 is > 100 µM (inactive).
Consider `CCc1cc(=O)n(/C(C)=C/c2ccccc2)n1C`, for which the GI50 in the assay on CAKI-1, in the assay on CCRF-CEM, in the assay on HT-29, in the assay with IGROV-1, in the assay with MOLT-4 and in the assay on NCI-H226 was > 100 µM (inactive) throughout. Besides, the GI50 in the assay on NCI-H23, in the assay on NCI-H460, in the assay on OVCAR-3, with OVCAR-4, with OVCAR-5 and in the assay on RXF 393 was > 100 µM (inactive) in each case. In addition, the GI50 in the assay on SF-539, in the assay with SK-MEL-5, in the assay with SNB-19, with U-251 and with UACC-257 was > 100 µM (inactive) throughout.
With `CCOC(=O)C(C)N1C(=O)c2ccccc2S1(=O)=O` (stereo unspecified), the GI50 is > 100 µM (inactive) with A498; > 100 µM (inactive) in the assay on CAKI-1; > 100 µM (inactive) in the assay on CCRF-CEM; > 100 µM with HCT-15; > 100 µM (inactive) in the assay on HT-29; > 100 µM (inactive) in the assay with IGROV-1. Besides, the GI50 with MOLT-4, in the assay on Malme-3M, with NCI-H226, with NCI-H23, in the assay with NCI-H460 and with OVCAR-3 was > 100 µM (inactive) throughout. Further, the GI50 in the assay on OVCAR-4, in the assay on OVCAR-5, in the assay on SF-539, with SK-MEL-5, with SNB-19 and with U-251 was > 100 µM (inactive) in each case. Moreover, the GI50 with UACC-257 was > 100 µM (inactive).

Source of the values: ChEMBL document CHEMBL1201862, “PubChem BioAssay data set” (2004).
